# Results: patent US7547679B2, “Ether linked macrolides useful for the treatment of microbial infections” (GlaxoSmithKline istrazivacki center Zagreb d.o.o, priority 2005, dated 2009)
# Counter-ions that a name gives are not always drawn.
# Key:
# Assay type in all cases: cell-based
# E. faecalis = experiment: MIC, microtiter broth serial dilution test, E. faecalis; conditions: Enterococcus faecalis; read-out: MIC against E. faecalis
# [1] = system: erythromycin resistant strain of Streptococcus pyogenes; experiment: MIC, microtiter broth serial dilution test, erythromycin resistant S. pyogenes; conditions: read-out: MIC against erythromycin resistant strain of Streptococcus pyogenes
# sensitive S. pyogenes = experiment: MIC, microtiter broth serial dilution test, sensitive S. pyogenes; conditions: Streptococcus pyogenes; sensitive strain; read-out: MIC against sensitive S. pyogenes
# sensitive S. pneumoniae = experiment: MIC, microtiter broth serial dilution test, sensitive S. pneumoniae; conditions: Streptococcus pneumoniae; sensitive strain; read-out: MIC against sensitive S. pneumoniae
# [2] = system: erythromycin resistant strain of Streptococcus pneumoniae; experiment: MIC, microtiter broth serial dilution test, erythromycin resistant S. pneumoniae; conditions: read-out: MIC against erythromycin resistant strain of Streptococcus pneumoniae
# M. catarrhalis = experiment: MIC, microtiter broth serial dilution test, M. catarrhalis; conditions: Moraxella catarrhalis; read-out: MIC against M. catarrhalis
MIC (E. faecalis) [µg/mL],MIC [1] [µg/mL],MIC (sensitive S. pyogenes) [µg/mL],MIC (sensitive S. pneumoniae) [µg/mL],MIC [2] [µg/mL],MIC (M. catarrhalis) [µg/mL],SMILES
≤ 1,≤ 0.25,≤ 0.125,≤ 0.125,≤ 0.25,–,"CC[C@H]1OC(=O)[C@H](C)[C@@H](OC2C[C@@](C)(OC)[C@@H](OCCNCCOCCOCCNc3cc4c(=O)c(C(=O)O)cn(C5CC5)c4cc3Cl)[C@H](C)O2)[C@H](C)[C@@H](O[C@@H]2O[C@H](C)C[C@H](N(C)C)[C@H]2O)[C@](C)(O)C[C@@H](C)CN(C)[C@H](C)[C@@H]2OC(=O)O[C@]12C (stereo partly shown) [Example 2, 4″-O-[2-(2-{2-[2-(3-Carboxy-7-chloro-1-cyclopropyl-4-oxo-1,4-dihydro-quinolin-6-yl-amino)-ethoxy]-ethoxy}-ethylamino)-ethyl]-azithromycin 11,12-cyclic carbonate]"
≤ 1,≤ 0.25,≤ 0.125,≤ 0.125,≤ 0.25,–,"CC[C@H]1OC(=O)[C@H](C)[C@@H](OC2C[C@@](C)(OC)[C@@H](OCCNCCOCCNc3cc4c(=O)c(C(=O)O)cn(C5CC5)c4cc3Cl)[C@H](C)O2)[C@H](C)[C@@H](O[C@@H]2O[C@H](C)C[C@H](N(C)C)[C@H]2O)[C@](C)(O)C[C@@H](C)CN(C)[C@H](C)[C@@H]2OC(=O)O[C@]12C (stereo partly shown) [Example 3, 4″-O-(2-{2-[2-(3-Carboxy-7-chloro-1-cyclopropyl-4-oxo-1,4-dihydro-quinolin-6-ylamino)-ethoxy]-ethylamino}-ethyl)-azithromycin 11,12-cyclic carbonate]"
≤ 1,≤ 0.25,≤ 0.125,≤ 0.125,≤ 0.25,≤ 1,"CC[C@H]1OC(=O)[C@H](C)[C@@H](O[C@H]2C[C@@](C)(OC)[C@@H](OCCCNCCOCCCc3ccc4c(c3)c(=O)c(C(=O)O)cn4CC)[C@H](C)O2)[C@H](C)[C@@H](O[C@@H]2O[C@H](C)C[C@H](N(C)C)[C@H]2O)[C@](C)(O)C[C@@H](C)CN(C)[C@H](C)[C@@H](O)[C@]1(C)O [Example 5, 4″-O-(3-{2-[3-(3-Carboxy-1-ethyl-4-oxo-1,4-dihydro-quinolin-6-yl)-propoxy]-ethylamnio}-propyl)-azithromycin]"
–,≤ 0.25,–,–,≤ 0.25,≤ 1,"CC[C@H]1OC(=O)[C@H](C)[C@@H](O[C@H]2C[C@@](C)(OC)[C@@H](OCCCOCCOCCCc3ccc4c(c3)c(=O)c(C(=O)O)cn4CC)[C@H](C)O2)[C@H](C)[C@@H](O[C@@H]2O[C@H](C)C[C@H](N(C)C)[C@H]2O)[C@](C)(O)C[C@@H](C)CN(C)[C@H](C)[C@@H](OC)[C@]1(C)O [Example 8, 4″-O-(3-{2-[3-(3-Carboxy-1-ethyl-4-oxo-1,4-dihydro-quinolin-6-yl)-propoxy]-ethoxy}-propyl)-11-O-methyl azithromycin]"
≤ 1,≤ 0.25,≤ 0.125,≤ 0.125,–,≤ 1,"CC[C@H]1OC(=O)[C@H](C)[C@@H](O[C@H]2C[C@@](C)(OC)[C@@H](OCCCNC(=O)CCOCCCc3ccc4c(c3)c(=O)c(C(=O)O)cn4N(C)C)[C@H](C)O2)[C@H](C)[C@@H](O[C@@H]2O[C@H](C)C[C@H](N(C)C)[C@H]2O)[C@](C)(OC)C[C@H](C)C(=O)[C@H](C)[C@@H](O)[C@]1(C)O [Example 9, 4″-O-(3-{3-[3-(3-Carboxy-1-dimethylamino-4-oxo-1,4-dihydro-quinolin-6-yl)-propoxy]-propionylamino}-propyl)-6-O-methyl-erythromycin A]"
≤ 1,≤ 0.25,≤ 0.125,≤ 0.125,≤ 0.25,–,"CC[C@H]1OC(=O)[C@H](C)[C@@H](O[C@H]2C[C@@](C)(OC)[C@@H](OCCCNC(=O)CCOCCOCCNc3cc4c(=O)c(C(=O)O)cn(C5CC5)c4cc3Cl)[C@H](C)O2)[C@H](C)[C@@H](O[C@@H]2O[C@H](C)C[C@H](N(C)C)[C@H]2O)[C@](C)(O)C[C@@H](C)CN(C)[C@H](C)[C@@H](O)[C@]1(C)O [Example 11, 4″-O-[3-(3-{2-[2-(3-carboxy-7-chloro-1-cyclopropyl-4-oxo-1,4-dihydro-quinolin-6-ylamino)-ethoxy]-ethoxy}-propionylamino)-propyl]-azithromycin]"
≤ 1,≤ 0.25,≤ 0.125,≤ 0.125,≤ 0.25,≤ 1,"CC[C@H]1OC(=O)[C@H](C)[C@@H](O[C@H]2C[C@@](C)(OC)[C@@H](OCCCOCCCOCCCc3ccc4c(c3)c(=O)c(C(=O)O)cn4C3CC3)[C@H](C)O2)[C@H](C)[C@@H](O[C@@H]2O[C@H](C)C[C@H](N(C)C)[C@H]2O)[C@](C)(O)C[C@@H](C)CN(C)[C@H](C)[C@@H](O)[C@]1(C)O [Example 13, 4″-O-(3-{3-[3-(3-Carboxy-1-cyclopropyl-4-oxo-1,4-dihydro-quinolin-6-yl)-propoxy]-propoxy}-propyl)-azithromycin]"
≤ 1,≤ 0.25,≤ 0.125,≤ 0.125,≤ 0.25,≤ 1,"CC[C@H]1OC(=O)[C@H](C)[C@@H](O[C@H]2C[C@@](C)(OC)[C@@H](OCCCOCCOCCCc3ccc4c(c3)c(=O)c(C(=O)O)cn4N(C)C)[C@H](C)O2)[C@H](C)[C@@H](O[C@@H]2O[C@H](C)C[C@H](N(C)C)[C@H]2O)[C@](C)(O)C[C@@H](C)CN(C)[C@H](C)[C@@H](O)[C@]1(C)O [Example 15, 4″-O-(3-{2-[3-(3-Carboxy-1-dimethylamino-4-oxo-1,4-dihydro-quinolin-6-yl)-propoxy]-ethoxy}-propyl)-azithromycin]"
≤ 1,≤ 0.25,≤ 0.125,≤ 0.125,≤ 0.25,–,"CC[C@H]1OC(=O)[C@H](C)[C@@H](O[C@H]2C[C@@](C)(OC)[C@@H](OCCNCCOCCNc3cc4c(cc3F)c(=O)c(C(=O)O)cn4C3CC3)[C@H](C)O2)[C@H](C)[C@@H](O[C@@H]2O[C@H](C)C[C@H](N(C)C)[C@H]2O)[C@](C)(O)C[C@@H](C)CN(C)[C@H](C)[C@H]2OC(=O)O[C@@]21C [Example 16, 4″-O-(2-{2-[2-(3-Carboxy-6-fluoro-1-cyclopropyl-4-oxo-1,4-dihydro-quinolin-7-ylamino)-ethoxy]-ethylamino}-ethyl)-azithromycin 11,12-cyclic carbonate]"
≤ 1,≤ 0.25,≤ 0.125,≤ 0.125,≤ 0.25,≤ 1,"CC[C@H]1OC(=O)[C@H](C)[C@@H](O[C@H]2C[C@@](C)(OC)[C@@H](OCCNCCOCCOCCc3ccc4c(c3)c(=O)c(C(=O)O)cn4CC)[C@H](C)O2)[C@H](C)[C@@H](O[C@@H]2O[C@H](C)C[C@H](N(C)C)[C@H]2O)[C@](C)(OC)C[C@@H](C)C(=O)[C@H](C)[C@@H](O)[C@]1(C)O [Example 18, 4″-O-{2-({2-[(2-{[2-(3-Carboxy-1-ethyl-4-oxo-1,4-dihydro-6-quinolinyl)ethyl]oxy}ethyl)oxy]ethyl}amino)ethyl}-6-O-methyl-erythromycin A formate]"
≤ 1,≤ 0.25,≤ 0.125,≤ 0.125,≤ 0.25,≤ 1,"CC[C@H]1OC(=O)[C@H](C)[C@@H](O[C@H]2C[C@@](C)(OC)[C@@H](OCCN(C)CCOCCOCCc3ccc4c(c3)c(=O)c(C(=O)O)cn4CC)[C@H](C)O2)[C@H](C)[C@@H](O[C@@H]2O[C@H](C)C[C@H](N(C)C)[C@H]2O)[C@](C)(OC)C[C@@H](C)C(=O)[C@H](C)[C@@H](O)[C@]1(C)O [Example 19, 4″-O-{2-({2-[(2-{[2-(3-Carboxy-1-ethyl-4-oxo-1,4-dihydro-6-quinolinyl)ethyl]oxy}ethyl)oxy]ethyl}methylamino)ethyl}-6-O-methyl-erythromycin A]"
